In patent US9487551B2, “Small molecule compounds that control mammal-pathogenic nematodes” (California Institute of Technology, priority 2011, dated 2016):
Entries after “also recorded” stand apart in the source; their conditions may differ.

Legend:
C. elegans [1] = test: Ascaroside function (Table 12); format: in vivo, Caenorhabditis elegans; design: key to Attract Females/Herm. / Promote Dauer Formation / Attract Males: A very strong result of affecting nematode behavior is designated in the table as “strong.”; details: listed = has this function
Procedure: Various ascarosides and ascaroside blends were administered to various nematodes described below (Table 12). […] A very strong result of affecting nematode behavior is designated in the table as “strong.”

ASI sensory neurons = details: in vivo; cited from earlier work
AIA interneurons = test: Calcium imaging (G-CaMP); format: in vivo, C. elegans; details: 1 μM icas#3
Text: Transgenic lines that express the genetically encoded Ca^2+ sensor in ASK (kyEx2866) and AIA (kyEx2916) (Macosko et al., Nature 458:1171-75 (2009), which is hereby incorporated by reference in its entirety) were used for calcium imaging. Young adults or adult worms were inserted into an “Olfactory chip” microfluidic device (Chronis et al., Nat. Methods 4:727-31 (2007), which is hereby incorporated by reference in its entirety). Dilutions of icas#3 were done with S-basal buffer (with no cholesterol). As stock solutions of icas#3 contained small amounts of ethanol, equivalent amounts of ethanol were added to the S-basal control flow.
Imaging was conducted using an inverted Zeiss microscope equipped with an Andor camera. Exposure time for image acquisition was 300 milliseconds. Before imaging the ASK neuron, the worm was exposed to blue light for 3 minutes as ASK responds to the blue light itself. […] Movies were analyzed using custom-made Matlab scripts. The first peak of fluorescence immediately after exposure to buffer or icas#3 was chosen for calculating the average change in fluorescence upon exposure to either buffer or icas#3. The value for this maximum was then subtracted from the mean fluorescence during the 5 seconds before the delivery of icas#3/buffer (corresponding to the region between 5 to 10 seconds in FIG. 2D).

C. elegans [2] = test: Quadrant chemotaxis assay; format: in vivo; details: for chemotaxis of hermaphrodites from all tested strains: 1 pM icas#3, except npr-1(ad609) for the blend
Procedure: Chemotaxis to both non-indole and indole ascarosides was assessed on 10 cm four-quadrant petri plates (Wicks et al., Dev. Biol. 221:295-307 (2000), which is hereby incorporated by reference in its entirety). Each quadrant was separated from adjacent ones by plastic spacers (FIG. 1B). Pairs of opposite quadrants were filled with nematode growth medium (NGM) agar containing either indole ascarosides or non-indole ascarosides at different concentrations. Animals were washed gently in a S-basal buffer, placed in the center of a four-quadrant plate with ascarosides in alternating quadrants, and scored after 15 minutes and 30 minutes. A chemotaxis index was calculated as: (the number of animals on ascaroside quadrants minus the number of animals on buffer quadrants)/(total number of animals).
Chemotaxis to hbas#3 was assessed on 10 cm four-quadrant petri plates (Wicks et al., Dev. Biol. 221:295-307 (2000), which is hereby incorporated by reference in its entirety). Each quadrant was separated from adjacent ones by plastic spacers. Pairs of opposite quadrants were filled with nematode growth medium (NGM) agar containing different concentrations of hbas#3. Animals were washed gently in an S-basal buffer and placed in the center of a four-quadrant plate with ascarosides in alternating quadrants, and scored after 15 minutes and 30 minutes. A chemotaxis index was calculated as: (the number of animals on ascaroside quadrants minus the number of animals on buffer quadrants)/(total number of animals).

C. elegans [3] = test: Aggregation assay; format: in vivo
Procedure: Aggregation behavior of worms was measured using assays reported in de Bono & Bargmann, Cell 94:679-89 (1998), which is hereby incorporated by reference in its entirety. Aggregation assays were conducted on standard NGM plates. Plates containing indole ascarosides were made by adding the indole ascaroside stock solution to the NGM media before they were poured onto the plates. These plates were dried at room temperature for 2 to 3 days. Control plates were treated similarly, except that ethanol solutions instead of icas solutions were added to the plates, corresponding to the amount of ethanol introduced via the icas solutions. Final ethanol concentrations of the plates were below 0.1% for all conditions. After drying, both control plates and plates containing indole ascarosides were seeded with 150 μl of an overnight culture of E. coli OP50 using a micropipette, and were allowed to dry for 2 days at room temperature. For “low worm density” experiments, 20 worms were placed onto the lawn and left at 20° C. for 3 hours. For “high worm density” experiments, approximately 120 worms were placed onto the bacterial lawn and left at 20° C. for 3 hours. Aggregation behavior was quantified as the number of animals that were in touch with two or more animals at greater than 50% of their body length.

C. elegans [4] = test: Spot attraction assay; format: in vivo
Procedure: The spot attraction assays were conducted according to a previously reported method (Pungaliya et al., PNAS 106:7708-13 (2009); Srinivasan et al., Nature 454:1115-18 (2008), which are hereby incorporated by reference in their entirety). For both C. elegans hermaphrodites and males, 50-60 worms were harvested daily at the fourth larval stage (L4) and stored segregatedly by sex at 20° C. overnight, to be used as young adults the following day. For the competition experiments, two conditions were used: 120 nM ascr#3 and 10 nM icas#3 (Condition 1), or 12 μM ascr#3 and 1 μM icas#3 (Condition 2) in water containing 10% ethanol. Aliquots were stored at −20° C. in 20 μL tubes. 10% ethanol in water was used as control.
Attraction assays with hbas#3 were conducted as previously reported (Srinivasan et al., Nature 454:1115-18 (2008); Pungaliya et al., Proc. Natl. Acad. Sci. U.S.A. 106:7708-13 (2009), which are hereby incorporated by reference in their entirety). For the attraction assays, 50-60 hermaphrodite worms were harvested daily at the early fourth larval stage (L4) and stored at 20° C. overnight to be used as young adults the following day. Hbas#3 was dissolved in water containing 10% ethanol. Aliquots were stored at −20° C. in 20 μL tubes. 10% ethanol in water was used as control.

C. elegans [5] = test: Measurement of locomotory parameters (automated worm-tracking); format: in vivo
Procedure: Reversal frequency and velocity were measured using an automated worm-tracking system (Pungaliya et al., PNAS 106:7708-13 (2009); Srinivasan et al., Nature 454:1115-18 (2008), which are hereby incorporated by reference in their entirety).

For `C[C@@H]1O[C@@H](OCCC(=O)O)[C@H](O)C[C@H]1O` [ascr#5], the “Promote Dauer Formation” value (C. elegans [1]) is listed as “ascr#5 ([strong])”, the “Repel Females/Herm.” value (C. elegans [1]) is listed as “ascr#5” and the “calcium transients in the ASI sensory neurons” value (ASI sensory neurons) is listed as “does not elicit calcium transients”.

For `C[C@H](CCCC/C=C/C(=O)O)O[C@@H]1O[C@@H](C)[C@H](OC(=O)c2c[nH]c3ccccc23)C[C@H]1O` [icas#3], the “G-CaMP fluorescence in the AIA neurons” value (AIA interneurons) was “significantly increased G-CaMP fluorescence”, the “chemotaxis of hermaphrodites from all tested strains” value (C. elegans [2]; after 15 minutes, 10 nM of each ascr#2,3,5) was “attracted” and the “chemotaxis of hermaphrodites from all tested strains” value (C. elegans [2]; after 30 minutes, 10 nM ascr#2,3,5) was “attracted”. For the same molecule, the “response of daf-22 hermaphrodites” value (C. elegans [2]; daf-22 mutant) was “as strongly as N2 worms”, the “concentration as low as which resulted in strong attraction of hermaphrodites” value (C. elegans [2]; in the presence and absence of food) was 1 pM and the “chemotaxis of npr-1(ad609) hermaphrodites” value (C. elegans [2]; npr-1(ad609) mutant) was “strongly attracted”. The “chemotaxis of social wild-type hermaphrodites” value (C. elegans [2]; strains RC301 and CB4856) was “strongly attracted”, the “aggregation of CB4856” value (C. elegans [3]; 1 nM of icas#3) was “not significantly different from the control” and the “aggregation of hermaphrodites lacking the ASK neurons” value (C. elegans [3]; any of the tested concentrations) was “did not aggregate”. The “aggregation of daf-22 hermaphrodites” value (C. elegans [3]; compared with N2) was “less aggregation than N2 worms at 1 pM icas#3 but not at 10 pM icas#3”, the “aggregation of solitary and social hermaphrodites” value (C. elegans [3]; constant background concentration) was “strongly increased the propensity” and the “aggregation of npr-1(ad609) hermaphrodites” value (C. elegans [3]; entire tested concentration range, no drop off) was “increased aggregation”. The “aggregation of him-5 males” value (C. elegans [3]; icas#3 plates) was “significantly increased”, the “concentration window for hermaphrodite attraction and aggregation” value (C. elegans [3]; in vivo) was “femtomolar to low picomolar” and the “concentration as low as which gave a very strong increase in aggregation” value (C. elegans [3]; low worm density, solitary and social hermaphrodites) was 10 fM. For the same molecule, the “attraction in spot attraction assay” value (C. elegans [4]; 1 pmol (high concentrations), N2 hermaphrodites and him-5 males) was “attractive to both C. elegans sexes; also recorded: attracted both males and hermaphrodites”, the “attraction after ablation of ASI neurons” value (C. elegans [4]; ASI-ablated hermaphrodites) was “no significant effect” and the “attraction after ablation of ASK sensory neurons” value (C. elegans [4]; ASK-ablated hermaphrodites) was “near complete loss of attraction”. For the same molecule, the “attraction of daf-22 hermaphrodites” value (C. elegans [4]; daf-22 mutant) was “attracted; also recorded: as strongly as N2 worms”, the “attraction of AIA-deficient worms” value (C. elegans [4]; hyperactive MEC-4 in AIA interneuron) was “did not show any attraction” and the attraction of hermaphrodites (C. elegans [4]; low concentrations, N2 hermaphrodites) was “strongly attractive to hermaphrodites”. The attraction of males (C. elegans [4]; low concentrations, males) was “no longer attracted”, the “attraction of npr-1(ad609) hermaphrodites” value (C. elegans [4]; npr-1(ad609) mutant) was “strongly attracted” and the “attraction of social wild-type hermaphrodites” value (C. elegans [4]; strains RC301 and CB4856) was “strongly attracted”. The “response after ablation of RMG interneuron” value (C. elegans [4]; wild-type and ncs-1::gfp worms, RMG ablated) was “did not affect icas#3 response”, the “Attract Females/Herm.” value (C. elegans [1]) was “icas#3 ([strong])” and the “Attract Males” value (C. elegans [1]) was “icas#3 ([strong])”. For the same molecule, the worm velocity (C. elegans [5]; 1-10 pM icas#3) was “not significantly reduced”, the mean stopped duration (C. elegans [5]; aggregation-inducing concentrations, N2 hermaphrodites) was “strongly increase” and the “reversal frequency and velocity of ASK-ablated hermaphrodites” value (C. elegans [5]; icas#3 plates) was “neither increased reversal frequency nor decreased velocity”.
